Source: patent US12605397B2, “Deoxy-cytidine or uridine derivatives for use in cancer therapies” (HEMISPHERIAN AS, priority 2019, dated 2026)
pIC50: −log10 of the molar value.

Key:
U87-MG cells = test: Survival assay (MTT), U87-MG; settings: MTT; for cytotoxicity to U87-MG cells (cell survival): up to 100 μM; for pIC50: U87-MG, Glioma, Grade IV
Procedure: (§5) Cell lines not mentioned above were grown in DMEM (Sigma, Cat.Nr. D6429) supplemented with 10% Fetal Bovine Serum and 100 U/ml penicillin 100 U/ml streptomycin. All cells were maintained in a 5% CO2, humidified, water-jacketed incubator at 37° C. Cells were passed between 70 and 90% confluence.
(§6) In a 96-well plate, 4000 cells in 100 μl of corresponding medium were seeded. The following day, drugs, diluted in DMSO, were added in 8 concentrations in triplicate. Drugs were added as a 4-fold dilution series starting from 100 μM. Cells were incubated with the drugs for 72 hours. Cell proliferation was assessed by MTT assay according to the manufacturer's protocol (ATCC, Cat. Nr. 30-1010K). Cell survival was normalized to the survival of cells treated with DMSO only. Experiment was performed three times, data represent mean of nine wells±SEM.
In a 96-well plate, 4000 cells in 100 μl of corresponding medium were seeded. The following day, drugs, diluted in DMSO, were added in triplicate at a concentration of 100, 25, 6.25, 1.56, 0.39, 0.1, 0.02, or 0.006 ┘M. Cells were incubated with the drugs for 72 hours. Cell proliferation was assessed by MTT assay according to the manufacturer's protocol (ATCC, Cat. Nr. 30-1010K). Cell survival was normalized to the survival of cells treated with DMSO only. Experiment was performed three times, data represent mean of nine wells±SEM.

glioblastoma multiforme = settings: Phase II trials (NCI 06-C-0064E); cited from earlier work
SK-OV-3 cells = test: Survival assay (MTT), SK-OV-3; format: cell-based, human; settings: SK-OV-3, Ovarian Adenocarcinoma, 72 hours, MTT
Procedure: (§1) Cells were passed between 70 and 90% confluence.
(§2) Cells were incubated with the drugs for 72 hours.

MIA PaCa-2 cells = test: Survival assay (MTT), MIA PaCa-2; format: cell-based, human; settings: MIA PaCa-, Pancreatic Carcinoma, 72 hours, MTT
Procedure: as §1, §2

HL-60 cells = test: Survival assay (MTT), HL-60; format: cell-based, human; settings: HL-60, Acute Promyelocytic Leukemia, 72 hours, MTT
Procedure: as §1, §2

A375 cells = test: Survival assay (MTT), A375; format: cell-based, human; settings: A375, Malignant Melanoma, 72 hours, MTT
Procedure: as §1, §2

DIPG007 cells = test: Survival assay (MTT), DIPG007; format: cell-based, human; settings: DIPG007, Glioma, Grade IV, 72 hours
Procedure: as §1, §2

G14 cells = test: Survival assay (MTT), G14; format: cell-based, human; settings: G14, Glioma, Grade IV, 72 hours
Procedure: (§3) Primary glioma neural stem (GNS) cells (G7, G14, G144, G166) were cultured on poly-D-lysine (Merck Millipore, Cat. Nr. A-003-E) and laminin (R&D Systems, Cat.Nr. 3446-005-01) coated plates in neural stem cell medium (50% DMEM-F12 (Thermofisher, Cat. Nr. 21041025), 50% neurobasal medium (Thermofisher, Cat. Nr. 10888-022), N2 (Life Technologies, Cat. Nr. A-003-E) and B27 supplements (Life Technologies, Cat.Nr. 12587010), 1 mM sodium pyruvate (Life Technologies, Cat.Nr. 11360-039), 2 mM glutamax (Life Technologies, Cat. Nr. 35050038), 1 mM HEPES (Fisher Scientific, Cat. Nr. BP299-1), 0.1 mM β-mercaptoethanol (Life Technologies, Cat. Nr. 31350010), 1× nonessential amino acids (Life Technologies, Cat. Nr. 11140-035), 0.006% bovine serum albumin (Sigma, Cat. Nr. A8577-10ML), 4 μg/ml heparin (Sigma, Cat. Nr. H3149-25KU), 100 U/ml penicillin, 100 μg/ml streptomycin, 20 ng/ml hEGF (R&D Systems, Cat. Nr. 236-EG-200), 10 ng/ml bFGF (Peprotech, Cat. Nr. 100-18B).
as §2

A-498 cells = test: Survival assay (MTT), A-498; format: cell-based, human; settings: A-498, Kidney Carcinoma, 72 hours, MTT
Procedure: as §1, §2

SF188 cells = test: Survival assay (MTT), SF188; format: cell-based, human; settings: SF188, Glioma, Grade IV, 72 hours
Procedure: as §1, §2

U937 cells = test: Survival assay (MTT), U937; format: cell-based, human; settings: U937, Lymophoma, 72 hours, MTT
Procedure: as §1, §2

Buffy M cells = test: Survival assay (MTT), Buffy M; format: cell-based, human; settings: Normal, Bone Marrow, 72 hours
Procedure: as §1, §2
(§4) The present inventors further investigated the extent to which these compounds kill normal human cells; low cytotoxicity against normal human cells is advantageous property for anti-cancer agents. The cytotoxicity of these compounds in various normal human cell lines was therefore investigated (Table 3). Cells were grown and the survival assay was performed as described above (Materials and Methods).

Buffy C cells = test: Survival assay (MTT), Buffy C; format: cell-based, human; settings: Normal, Bone Marrow, 72 hours
Procedure: as §1, §2, §4

MRC5 cells = test: Survival assay (MTT), MRC5; format: cell-based, human; settings: MRC5, Normal, Lung; 72 hours, MTT
Procedure: as §1, §2, §4

A549 cells = test: Survival assay (MTT), A549; format: cell-based, human; settings: A549, Lung Carcinoma, 72 hours, MTT
Procedure: as §1, §2

CB152 cells = test: Survival assay (MTT), CB152; format: cell-based, human; settings: CB152, Glioma, Grade IV, 72 hours
Procedure: as §1, §2

G7 cells = test: Survival assay (MTT), G7; format: cell-based, human; settings: G7, Glioma, Grade IV, 72 hours
Procedure: as §3, §2

MCF-7 cells = test: Survival assay (MTT), MCF-7; format: cell-based, human; settings: MCF-7, Epithelial Adenocarcinoma (Breast), 72 hours, MTT
Procedure: as §1, §2

NCI-N87 cells = test: Survival assay (MTT), NCI-N87; format: cell-based, human; settings: NCI-N87, Gastric Carcinoma, 72 hours, MTT
Procedure: as §1, §2

G166 cells = test: Survival assay (MTT), G166; format: cell-based, human; settings: G166, Glioma, Grade IV, 72 hours
Procedure: as §3, §2

Arpe19 cells = test: Survival assay (MTT), Arpe19; format: cell-based, human; settings: Arpe19, Normal, Ectoderm; 72 hours, MTT
Procedure: as §2, §4

G144 cells = test: Survival assay (MTT), G144; format: cell-based, human; settings: G144, Glioma, Grade IV, 72 hours
Procedure: as §3, §2

Buffy A cells = test: Survival assay (MTT), Buffy A; format: cell-based, human; settings: Normal, Bone Marrow, 72 hours
Procedure: as §1, §2, §4

HeLa cells = test: Survival assay (MTT), HeLa; settings: for pIC50: HeLa
Procedure: as §5, §6
HeLa cells, grown as described above (Materials and Methods), were treated with 5-hydroxymethyl-2′-deoxycytidine and 5-formyl-2′-deoxycytidine. After three days of treatment with these compounds, cell survival was assessed as described above (Materials and Methods).
After three days of treatment with these compounds at a concentration of 100, 25, 6.25, 1.56, 0.39, 0.1, 0.02, or 0.006 μM, cell survival was assessed by MTT assay as described above (Materials and Methods).

G26 cells = test: Survival assay (MTT), G26; format: cell-based, human; settings: G26, Glioma, Grade IV, 72 hours
Procedure: as §1, §2

U3017 cells = test: Survival assay (MTT), U3017; format: cell-based, human; settings: U3017, Glioma, Grade IV, 72 hours
Procedure: as §1, §2

HCT-116 cells = test: Survival assay (MTT), HCT-116; format: cell-based, human; settings: HCT-116, Colon Carcinoma, 72 hours, MTT
Procedure: as §2

U3013 cells = test: Survival assay (MTT), U3013; format: cell-based, human; settings: U3013, Glioma, Grade IV, 72 hours
Procedure: as §1, §2

U2OS cells = test: Survival assay (MTT), U2OS; format: cell-based, human; settings: Bone Osteoscarcoma, 72 hours, MTT
Procedure: as §1, §2

G30 cells = test: Survival assay (MTT), G30; format: cell-based, human; settings: G30, Glioma, Grade IV, 72 hours
Procedure: as §1, §2

[1] = system: Glioma, Grade IV cell lines; test: Survival assay, panel of 12 patient derived Glioma, Grade IV cell lines; format: cell-based, human; settings: of 12 cell lines of Table 2
Procedure: as §3, §1, §2
Due to lack of activity in previous assays, 5-carboxyl-2′-deoxycytidine was not included in this more rigorous analysis.

HaCat cells = test: Survival assay (MTT), HaCat; format: cell-based, human; settings: Normal, Keratinocytes, 72 hours
Procedure: as §1, §2, §4

22Rv1 cells = test: Survival assay (MTT), 22Rv1; format: cell-based, human; settings: 22Rv1, Prostate Carcinoma, 72 hours, MTT
Procedure: as §1, §2

human cancer cell lines = test: Survival assay, range of human cancer cell lines; format: cell-based; settings: cell lines of Table 1
Procedure: as §2
With the knowledge that 5-formyl-2′-deoxycytidine is cytotoxic to cervical carcinoma (HeLa) cells, the study was expanded in two directions: (i) a further compound was assessed: 5-carboxyl-2′-deoxycytidine; and (ii) their cytotoxic effects against a wide range of human cancer cell lines was assessed (Table 1).

Compound: Nc1nc(=O)n([C@H]2C[C@H](O)[C@@H](COP(=O)(O)OP(=O)(O)OP(=O)(O)O)O2)cc1CO [5-hydroxymethyl-2′-deoxycytidine-5′-triphosphate]
- cytotoxicity to U87-MG cells (cell survival) (U87-MG cells; 72 hours): cytotoxic

Compound: Avastin (RTM): bevacizumab, an angiogenesis inhibitor with multiple oncology indications
- overall survival benefit (glioblastoma multiforme): did not yield an overall survival benefit

Compound: O=c1[nH]cc(F)c(=O)[nH]1 [5fU, 5-flurouracil, reference compound]
- pIC50 (SK-OV-3 cells): 5.43
- pIC50 (MIA PaCa-2 cells): 5.09
- pIC50 (HL-60 cells): < 4.60
- pIC50 (A375 cells): 5.10
- pIC50 (DIPG007 cells): 5.37
- pIC50 (G14 cells): 4.94
- pIC50 (A-498 cells): 5.63
- pIC50 (SF188 cells): 5.41
- pIC50 (U937 cells): 5.13
- pIC50 (Buffy M cells): < 4.60
- pIC50 (Buffy C cells): < 4.60
- pIC50 (MRC5 cells): < 4.60
- pIC50 (A549 cells): 5.73
- pIC50 (CB152 cells): 5.19
- pIC50 (G7 cells): 5.19
- pIC50 (MCF-7 cells): < 4.60
- pIC50 (NCI-N87 cells): 5.82
- pIC50 (G166 cells): 5.32
- pIC50 (Arpe19 cells): < 4.60
- pIC50 (G144 cells): 5.17
- pIC50 (Buffy A cells): < 4.60
- pIC50 (HeLa cells; Cervical Adenocarcinoma, 72 hours, MTT): < 4.60
- pIC50 (G26 cells): 5.15
- pIC50 (U3017 cells): 5.41
- pIC50 (HCT-116 cells): 5.45
- pIC50 (U3013 cells): 5.38
- pIC50 (U2OS cells): 5.54
- pIC50 (G30 cells): 4.63
- number of Glioma, Grade IV cell lines killed [1]: 11 of 12
- pIC50 (HaCat cells): 6.28
- pIC50 (U87-MG cells; 72 hours): < 4.60
- pIC50 (22Rv1 cells): < 4.60

Compound: Nc1nc(=O)n([C@H]2C[C@H](O)[C@@H](CO)O2)cc1Br [5-bromo-2′-deoxycytidine, reference compound]
- pIC50 (U87-MG cells; Homo sapiens, U-87 MG, 72 h): < 4.60

Compound: Nc1nc(=O)n([C@H]2C[C@H](O)[C@@H](CO)O2)cc1Cl [5-chloro-2′-deoxycytidine, reference compound]
- pIC50 (U87-MG cells; Homo sapiens, U-87 MG, 72 h): < 4.60

Compound: Nc1nc(=O)n([C@H]2C[C@H](O)[C@@H](CO)O2)cc1I [5-iodo-2′-deoxycytidine, reference compound]
- pIC50 (U87-MG cells; Homo sapiens, U-87 MG, 72 h): < 4.60

Compound: Nc1nc(=O)n([C@H]2C[C@H](O)[C@@H](CO)O2)cc1C(=O)O [2d5caC, 5-carboxy-2′-deoxycytidine, reference compound]
- pIC50 (SK-OV-3 cells; Homo sapiens): < 4.60
- pIC50 (MIA PaCa-2 cells; Homo sapiens, MIA PaCa-2): < 4.60
- pIC50 (HL-60 cells; Homo sapiens): < 4.60
- pIC50 (A375 cells; Homo sapiens, A-375): < 4.60
- pIC50 (A-498 cells; Homo sapiens, A498, 72 h): < 4.60
- pIC50 (U937 cells; Homo sapiens, U-937): < 4.60
- cytotoxicity in the cancer cell lines evaluated (human cancer cell lines): no cytotoxic properties
- pIC50 (A549 cells; Homo sapiens, A549, 72 h): < 4.60
- pIC50 (MCF-7 cells; Homo sapiens, MCF7): < 4.60
- pIC50 (NCI-N87 cells; Homo sapiens): < 4.60
- pIC50 (HeLa cells; Homo sapiens, 72 h): < 4.60
- pIC50 (HCT-116 cells; Homo sapiens, HCT-116, 72 h): < 4.60
- pIC50 (U2OS cells; Homo sapiens): < 4.60
- pIC50 (U87-MG cells; Homo sapiens, U-87 MG, 72 h): < 4.60
- pIC50 (22Rv1 cells; Homo sapiens, 22Rv1, 72 h): < 4.60

Compound: Nc1nc(=O)n([C@H]2C[C@H](O)[C@@H](COP(=O)(O)OP(=O)(O)OP(=O)(O)O)O2)cc1C=O [5-formyl-2′-deoxycytidine-5′-triphosphate]
- cytotoxicity to HeLa cells (cell survival) (HeLa cells; three days of treatment, MTT, up to 100 μM): unable to survive
- cytotoxicity to U87-MG cells (cell survival) (U87-MG cells; 72 hours): cytotoxic

Compound: COCc1cn([C@H]2C[C@H](O)[C@@H](CO)O2)c(=O)[nH]c1=O [5-methoxymethyl-2′-deoxyuridine]
- cytotoxicity to U87-MG cells (cell survival) (U87-MG cells; 72 hours): unable to survive

Compound: CC(=O)OCc1cn([C@H]2C[C@H](O)[C@@H](CO)O2)c(=O)[nH]c1=O [5-acetoxymethyl-2′-deoxyuridine]
- cytotoxicity to U87-MG cells (cell survival) (U87-MG cells; 72 hours): unable to survive
